Patent EP3970494A1 (priority 2020, dated 2022)

Columns and labels:
Experiment in all cases: microbe, parasite or virus in culture
Format in all cases: cell-based
Fusarium culmorum = settings: 168 h
Septoria tritici = settings: Zymoseptoria tritici, 168 h
Phytophthora infestans = settings: 168 h, read-out: Fungal growth at 31 ppm (%) PHYTIN

Compound	activity at 31 ppm (Fusarium culmorum) [%]	activity at 31 ppm (Septoria tritici) [%]	activity at 31 ppm (Phytophthora infestans) [%]
CNC(=O)/C(=N/OC)c1cccc(C)c1CO/N=C(\C)c1cc(/C(C)=N/OC)ccn1 [Example 30, (2E)-2-Methoxyimino-2-[2-[[(E)-1-[4-[(E)-N-methoxy-C-methyl-carbonimidoyl]-2-pyridyl]ethylideneamino]oxymethyl]-3-methyl-phenyl]-N-methyl-acetamide]	10	2	0
CNC(=O)/C(=N/OC)c1cccc(C)c1CO/N=C(\C)c1cc(C#N)ccn1 [Example 55]	12	8	0
CO/N=C(\C)c1ccnc(/C(C)=N/OCc2c(C)cccc2/C(=N\OC)C(=O)OC)c1 [Example 29, Methyl (2E)-2-methoxyimino-2-[2-[[(E)-1-[4-[(E)-N-methoxy-C-methyl-carbonimidoyl]-2-pyridyl]ethylideneamino]oxymethyl]-3-methyl-phenyl]acetate]	12	0	1
CO/N=C(/C(=O)OC)c1cccc(C)c1CO/N=C(\C)c1cc(C#N)ccn1 [Example 54]	14	4	2
CNC(=O)/C(=N/OC)c1cccc(C)c1CO/N=C(\C)c1cccc(C(F)F)n1 [Example 10]	9	2	0
CO/N=C(/C(=O)OC)c1cccc(C)c1CO/N=C(\C)c1ccnc(SC)c1 [Example 94]	15	1	1
CO/N=C(/C(=O)OC)c1cccc(C)c1CO/N=C(\C)c1cc(C(F)F)ccn1 [Example 34]	10	0	1
CNC(=O)/C(=N/OC)c1cccc(C)c1CO/N=C(\C)c1ncccc1C(F)F [Example 33]	11	4	14
CNC(=O)/C(=N/OC)c1cccc(C)c1CO/N=C(\C)c1cnc(Cl)c(Cl)c1 [Example 88]	14	9	0
CNC(=O)/C(=N/OC)c1cccc(C)c1CO/N=C(\C)c1ncsc1C(F)(F)F [Example 41]	9	2	0
CNC(=O)/C(=N/OC)c1cccc(C)c1CO/N=C(\C)c1cccc(SC)n1 [Example 93]	17	13	0
CO/N=C(/C(=O)OC)c1cccc(C)c1CO/N=C(\C)c1cc(C(F)(F)F)ncn1 [Example 113, Methyl (2E)-2-methoxyimino-2-[3-methyl-2-[[(E)-1-[6-(trifluoromethyl)pyrimidin-4-yl]ethylideneamino]oxymethyl]phenyl]acetate]	1	0	0
CO/N=C(/C(=O)OC)c1cccc(C)c1CO/N=C(\C)c1cnc(C(F)(F)F)cn1 [Example 96, Methyl (2E)-2-methoxyimino-2-[3-methyl-2-[[(E)-1-[5-(trifluoromethyl)pyrazin-2-yl]ethylideneamino]oxymethyl]phenyl]acetate]	13	18	0
CNC(=O)/C(=N/OC)c1cccc(C)c1CO/N=C(\C)c1cc(C(F)F)ccn1 [Example 37]	12	3	0
CNC(=O)/C(=N/OC)c1cccc(C)c1CO/N=C(\C)c1ncnc(Cl)c1F [Example 108]	8	0	0
CO/N=C(/C(=O)OC)c1cccc(C)c1CO/N=C(\C)c1cc(C(F)(F)F)cc(C)n1 [Example 46]	1	0	0
CNC(=O)/C(=N/OC)c1cccc(C)c1CO/N=C(/c1cc(C(F)(F)F)ccn1)C1CC1 [Example 70, (2E)-2-[2-[[(E)-[cyclopropyl-[4-(trifluoromethyl)-2-pyridyl]methylene]amino]oxymethyl]-3-methyl-phenyl]-2-methoxyimino-N-methyl-acetamide]	12	0	0
